Laboratory results as given in article PMC8032764 (Scientific Reports, 2021).
Read-outs that look alike come from different tables or passages of the source.

Experiments:
male Lister Hooded rats = test: Diazepam-induced spatial learning impairment in the Morris water maze; type: in vivo, rat; settings: diazepam 6 mg/kg i.p.
Description: The current study used a modified version of the standard acquisition protocol, in which pre-trained rats had to learn to locate a new platform position during six trials on the test day, as described previously. Subjects were semi-randomly divided into treatment groups based on their performance on the last training day. A computer tracking system (HVS Image Ltd, UK) was used to analyse each rat’s swim path on-line.
Latency, pathlength and swim speed (Supplementary Fig. S2) were analysed with a one-factor ANOVA. For the probe trial, to determine whether each treatment group had learned the spatial position of the platform, within-subjects ANOVA was used to compare percent time spent in the platform quadrant with the left, right and opposite quadrants. All significant cases were followed by a post hoc Newman–Keuls test. In addition, a comparison between vehicle treated and diazepam-treated rats on the percent time spent in the platform quadrant was analysed using an unpaired t-test.

Wistar rats = test: Pentylenetetrazole (PTZ) test; type: in vivo, rat; settings: positive control, 10 mg/kg i.p. 30 min prior to PTZ, p < 0.05
Description: PTZ was prepared in 0.9% saline and was administered s.c. in a volume of 1 mL/kg. The positive control FG7142, a non-selective GABAA receptor NAM, was prepared in 0.3% Tween 80 v/v saline and was administered i.p. in a volume of 1 mL/kg. […] During this period the number of rats showing tonic convulsions was noted.
FG7142 was administered at 10 mg/kg 30 min prior to PTZ. The percent of rats in each dose group showing tonic convulsions was compared to the control group by the Pearson Chi-Square test.

human GABAA α5β3γ2 = human GABAA α5β3γ2 (Homo sapiens, UniProt P18507+P31644); test: Two-electrode voltage clamp in Xenopus oocytes, current induced by EC10 of GABA; type: cell-based; parameters: expressed in transfected cells; host or cells: Xenopus laevis oocytes, cRNA injection
Chain of human GABAA α5β3γ2 (P31644 32-462): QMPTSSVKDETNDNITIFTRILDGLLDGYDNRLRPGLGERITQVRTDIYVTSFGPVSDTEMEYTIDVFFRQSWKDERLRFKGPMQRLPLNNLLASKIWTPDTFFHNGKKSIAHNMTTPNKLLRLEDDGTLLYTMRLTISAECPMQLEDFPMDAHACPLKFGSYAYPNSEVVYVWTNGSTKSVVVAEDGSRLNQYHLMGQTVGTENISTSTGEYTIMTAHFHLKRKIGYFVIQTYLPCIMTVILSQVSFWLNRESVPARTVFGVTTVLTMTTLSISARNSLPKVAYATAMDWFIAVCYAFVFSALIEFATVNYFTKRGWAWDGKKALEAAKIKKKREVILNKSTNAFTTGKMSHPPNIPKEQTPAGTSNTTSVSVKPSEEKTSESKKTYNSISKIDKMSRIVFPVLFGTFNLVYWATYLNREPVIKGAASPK
Chain of human GABAA α5β3γ2 (P28472 26-473 partner): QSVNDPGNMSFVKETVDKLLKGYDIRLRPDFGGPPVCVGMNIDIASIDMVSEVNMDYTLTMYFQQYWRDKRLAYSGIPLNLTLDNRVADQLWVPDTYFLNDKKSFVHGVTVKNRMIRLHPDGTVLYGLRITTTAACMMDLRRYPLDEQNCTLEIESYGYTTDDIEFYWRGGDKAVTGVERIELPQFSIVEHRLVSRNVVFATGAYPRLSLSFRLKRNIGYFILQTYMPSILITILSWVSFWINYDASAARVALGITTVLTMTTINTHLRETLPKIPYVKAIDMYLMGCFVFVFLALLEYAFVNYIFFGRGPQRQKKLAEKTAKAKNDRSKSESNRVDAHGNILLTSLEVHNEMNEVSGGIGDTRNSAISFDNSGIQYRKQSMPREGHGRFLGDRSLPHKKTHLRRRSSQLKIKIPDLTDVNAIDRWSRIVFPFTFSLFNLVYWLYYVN
Chain of human GABAA α5β3γ2 (P18507 40-475): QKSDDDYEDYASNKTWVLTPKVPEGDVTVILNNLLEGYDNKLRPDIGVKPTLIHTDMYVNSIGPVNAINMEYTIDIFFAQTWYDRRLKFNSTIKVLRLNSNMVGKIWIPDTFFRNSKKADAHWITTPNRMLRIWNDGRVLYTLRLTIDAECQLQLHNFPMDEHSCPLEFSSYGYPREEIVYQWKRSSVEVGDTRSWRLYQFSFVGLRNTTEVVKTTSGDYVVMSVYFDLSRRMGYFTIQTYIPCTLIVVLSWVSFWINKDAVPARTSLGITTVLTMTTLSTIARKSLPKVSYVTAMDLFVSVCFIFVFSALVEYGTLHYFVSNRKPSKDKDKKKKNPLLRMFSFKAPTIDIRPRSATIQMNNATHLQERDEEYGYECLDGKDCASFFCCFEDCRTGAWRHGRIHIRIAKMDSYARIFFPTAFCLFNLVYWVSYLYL
Description: Freshly prepared oocytes of maturation stage VI were bought from Ecocyte Bioscience (Castrop-Rauxel, Germany) and, after overnight delivery, plated into 96-well plates (Greiner no. 651101) for microinjection on a ROBOOCYTE R16 system (Multichannel Systems MCS GmbH, Reutlingen, Germany). Each oocyte was injected with roughly 50 nL of RNA solution. The solution for expressing receptors composed of the human α1, β2 and γ2 subunits contained 3 pg/nL of α1 and β2 RNA and 15 pg/nL of γ2 RNA. The solution for expressing human α2β3γ2 receptors contained 2.5 pg/nL of α2 and β3 RNA, 5 pg/nL of γ2 RNA and 10 pg/nL of GABARAP RNA. The solution for expressing human α3β3γ2 receptors contained 1.3 pg/nL of α3 and β3 RNA and 6.5 pg/nL of γ2 RNA. The solution for expressing human α5β3γ2 receptors contained 1.3 pg/nL of α5 and β3 RNA and 13 pg/nL of γ2 RNA. […] After the microinjection the oocytes were kept at 20 °C temperature until the electrophysiological experiment. Experiments were done 3 to 5 days later on the ROBOOCYTE instrument which employs the two-microelectrode voltage-clamp technique for membrane voltage control and current measurement. […] During current recording and compound testing the cell membrane was constantly clamped to − 80 mV. Current signals were recorded and stored on a PC-type computer using the ROBOOCYTE software.
(§1) During the microinjection and up to the electrophysiological experiment the oocytes were kept in a solution containing 88 mM NaCl, 1 mM KCl, 2.5 mM NaHCO3, 10 mM HEPES (AppliChem GmbH, Darmstadt, Germany), 0.82 MgSO4, 0.33 mM Ca(NO3)2, 0.33 mM CaCl2, 100 U/mL penicillin (GIBCO, ThermoFisher Scientific) and 100 µg/mL streptomycine (GIBCO, ThermoFisher Scientific). The pH was adjusted to 7.5. During the experiment the voltage-clamped oocyte was constantly superfused by a solution containing 90 mM NaCl, 1 mM KCl, 5 mM HEPES (AppliChem), 1 mM MgCl2 and 1 mM CaCl2 (pH 7.4). GABA and test compounds were added to this solution. GABA concentrations were chosen according to previously determined concentration–response relations for the different human GABAA receptor subunit combinations. Concentrations evoking approximately 10% of a maximal response were selected, i.e., 8 µM for α1β2γ2, 6 µM for α2β3γ2, 10 µM for α3β3γ2 and 5 µM for α5β3γ2. Solutions containing GABA or test compounds were freshly prepared at least every second day. […] Compounds were further diluted in DMSO and finally in extracellular saline to reach a DMSO concentration of 0.1%. The same amount of DMSO was added to the control solutions without test compounds.
During the experiment the solutions were fed into the well containing the voltage-clamped oocyte via Teflon tubings connected by electromagnetic valves which allowed rapid switching between different solutions (controlled by the ROBOCYTE software). Approximately 1–2 min after impaling an oocyte and switching to voltage-clamp mode GABA was applied for 90 s to record a control response. Thereafter the oocyte was washed with saline for 160 s followed by another 90 s GABA application. Then 30 s after the onset of the second GABA application the system switched to a solution containing GABA plus the test compound. Each oocyte was used for testing one concentration of a single test compound (for α5β3γ2: 1 nM: n = 8, 10 nM: n = 8, 100 nM: n = 7, 1000 nM: n = 7).
In this case each GABA application lasted 110 s and the rest period between the two GABA applications was 190 s long.
On each 96-well plate 3–6 oocytes were used for testing a known NAM at the BZD binding site, β-CCM (FG7106), as a positive control. […] Maximally effective concentrations of β-CCM were used for each subunit combination, i.e., 100 nM β-CCM for α1β2γ2, 300 nM for α2β3γ2 or α3β3γ2 and 1 µM for α5β3γ2.

GABAA α5β3γ2 = settings: cited from earlier work
GABAA α2β3γ2 = settings: Table S4a, cited from earlier work
GABAA α3β3γ2 = settings: Table S4a, cited from earlier work
GABAA α1β3γ2 = settings: Table S4a, cited from earlier work
male F-344 rats = test: Social approach avoidance test; settings: positive control, 3 mg/kg p.o., 30 min prior to testing
Description: Experiments on social approach avoidance were performed as described previously by[41] and[14]. A tracking system (Ethovision, Noldus, The Netherlands) was used to analyse each rat’s pathway.

human GABAA α2β3γ2 = system: T1, human GABAA α2β3γ2; test: Two-electrode voltage clamp in Xenopus oocytes, current induced by EC10 of GABA; type: cell-based; settings: 300 nM β-CCM; not shown
T1 construct: expressed in transfected cells; host or cells: Xenopus laevis oocytes, cRNA injection
Description: Freshly prepared oocytes of maturation stage VI were bought from Ecocyte Bioscience (Castrop-Rauxel, Germany) and, after overnight delivery, plated into 96-well plates (Greiner no. 651101) for microinjection on a ROBOOCYTE R16 system (Multichannel Systems MCS GmbH, Reutlingen, Germany). Each oocyte was injected with roughly 50 nL of RNA solution. The solution for expressing receptors composed of the human α1, β2 and γ2 subunits contained 3 pg/nL of α1 and β2 RNA and 15 pg/nL of γ2 RNA. The solution for expressing human α2β3γ2 receptors contained 2.5 pg/nL of α2 and β3 RNA, 5 pg/nL of γ2 RNA and 10 pg/nL of GABARAP RNA. The solution for expressing human α3β3γ2 receptors contained 1.3 pg/nL of α3 and β3 RNA and 6.5 pg/nL of γ2 RNA. The solution for expressing human α5β3γ2 receptors contained 1.3 pg/nL of α5 and β3 RNA and 13 pg/nL of γ2 RNA. GABARAP was added to the α2β3γ2 subunit mixture since the expression of γ2 would be low otherwise, as indicated by a weak effect of β-CCM[60]. After the microinjection the oocytes were kept at 20 °C temperature until the electrophysiological experiment. Experiments were done 3 to 5 days later on the ROBOOCYTE instrument which employs the two-microelectrode voltage-clamp technique for membrane voltage control and current measurement. […] During current recording and compound testing the cell membrane was constantly clamped to − 80 mV. Current signals were recorded and stored on a PC-type computer using the ROBOOCYTE software.
as §1, with “compounds. […]” for “compounds.”

In the case of `CN1C(=O)CN=C(c2ccccc2)c2cc(Cl)ccc21` [Diazepam, reference compound], the “latency and pathlength to find the platform across six trials” value (male Lister Hooded rats) is reported as “significantly increased the latency and pathlength”, the swim speed (male Lister Hooded rats) is reported as “small but significant increase in swim speed” and the “probe trial, learning of the new platform position” value (male Lister Hooded rats; 30 min before test) is reported as “significantly disrupted learning of the new platform position”.

In the case of `CNC(=O)c1cc2c(cn1)[nH]c1ccccc12` [FG7142, N-Methyl-9H-pyrido[5,4-b]indole-3-carboxamide, reference compound], the “number of rats showing tonic convulsions” value (Wistar rats) is reported as “increased the number of rats showing tonic convulsions”.

In the case of `CCOC(=O)c1ncn2c1CN(C)C(=O)c1cc(F)ccc1-2` [Flumazenil, reference compound], the “enhancement of the GABA-induced current” value (human GABAA α5β3γ2; 30 and 1000 nM, concentration-dependent) is reported as “up to 28%”.

In the case of `CCOC(=O)c1ncn2c1[C@@H]1CCCN1C(=O)c1cc(OC)ccc1-2` [L-655,708], the Ki (GABAA α5β3γ2; Table S4a, ref Atack et al., 2006, read-out: Ki α5β3γ2) is given as 1 nM, the Ki (GABAA α5β3γ2; discussion, no reference given, read-out: Ki at the GABAA-α5 receptor subtype) is given as about 1 nM and the Ki (GABAA α2β3γ2; ref Atack et al., 2006) is given as 48 nM. The Ki (GABAA α3β3γ2; ref Atack et al., 2006) was 31 nM and the Ki (GABAA α1β3γ2; ref Atack et al., 2006) was 70 nM.

In the case of `COCc1ncn2c1CN(C)C(=O)c1cc(Cl)ccc1-2` [PWZ-029], the Ki (GABAA α5β3γ2; Table S4a, ref Savić et al., 2008, read-out: Ki α5β3γ2) is given as 30 nM, the Ki (GABAA α2β3γ2; ref Savić et al., 2008) is given as over 300 nM and the Ki (GABAA α3β3γ2; ref Savić et al., 2008) is given as over 300 nM. For the same compound, the Ki (GABAA α1β3γ2; ref Savić et al., 2008) was 920 nM.

In the case of `CN1Cc2c(C(=O)OC(C)(C)C)ncn2-c2ccsc2C1=O` [Ro 19-4603, reference compound], the “time in the social compartment” value (male F-344 rats; p < 0.001) is reported as “significantly decreased the time in the social compartment” and the “time in the hidden area” value (male F-344 rats; p < 0.05) is reported as “increased the time in the hidden area”.

For `COC(=O)c1cc2c(cn1)[nH]c1ccccc12` [β-CCM, methyl beta-carboline-3-carboxylate, reference compound], the “inhibition of GABA response” value (human GABAA α2β3γ2) was 42% and the “reduction of the GABA-evoked current” value (human GABAA α5β3γ2; maximally effective concentration, 1 µM β-CCM, data not shown) was 52%.
